Source: patent US10899790B2, “Method for modifying T cell population” (OSAKA UNIVERSITY, priority 2016, dated 2021)

System: Healthy human-derived CD4+CD45RO+T cells
Test: Effect in vitro: CD62L and CD127 expression in cultured T cells by flow cytometry
Assay type: cell-based
Conditions: 20 μM; anti-CD3, anti-CD28, IL-2; vs DMSO control (FIG. 2)
Description: Healthy human-derived CD4^+CD45RO^+T cells (1×10^5) were cultured in the presence of anti-CD3 antibody (2 μg/ml), anti-CD28 antibody (2 μg/ml), IL-2 (20 IU/ml) and RDH10 inhibitors (Compound No. 16 (RDHI-032), Compound No. 17 (RDHI-033), and Compound No. 18 (RDHI-034)) (20 μM for each). In addition, DMSO was used as a control for the RDH10 inhibitor. After seven days […] resuspended in a fresh culture medium to which IL-2 was not added, and cultured for one more day. Thereafter, the expression of CD62L and CD127 in T cells was analyzed by flow cytometry. The culture solution used was X-VIVO15 to which AB serum was added to have a final concentration of 10%.

| Structure (SMILES) | amplification of memory T cells (CD62L+CD127+T cells) |
| --- | --- |
| COC(=O)[C@@]1(C)CC[C@]2(C)CC[C@]3(C)C(=CC(=O)[C@@H]4[C@@]5(C)CCC(NC(=O)c6ccccc6C(=O)O)C(C)(C)[C@@H]5CC[C@]43C)[C@H]2C1 (stereo partly drawn) [Compound No. 3, 2-((4aR,6aR,6bS,8aS,11S,12aS,14aR,14bS)-11-(methoxycarbonyl)-4,4,6a,6b,8a,11,14b-heptamethyl-14-oxo-1,2,3,4,4a,5,6,6a,6b,7,8,8a,9,10,11,12,12a,14,14a,14b-icosahydropicen-3-ylcarbamoyl)benzoic acid] | tended to amplify memory cells |
| COC(=O)[C@@]1(C)CC[C@]2(C)CC[C@]3(C)C(=CC(=O)[C@@H]4[C@@]5(C)CCC(NC(=O)/C=C\C(=O)O)C(C)(C)[C@@H]5CC[C@]43C)[C@@H]2C1 (stereo partly drawn) [Compound No. 6, (Z)-4-((4aR,6aR,6bS,8aS,11S,12aR,14aR,14bS)-11-(methoxycarbonyl)-4,4,6a,6b,8a,11,14b-heptamethyl-14-oxo-1,2,3,4,4a,5,6,6a,6b,7,8,8a,9,10,11,12,12a,14,14a,14b-icosahydropicen-3-ylamino)-4-oxobut-2-enoic acid] | tended to amplify memory cells |
| COC(=O)[C@H](Cc1ccccc1)NC(=O)NC1CC[C@]2(C)[C@H]3C(=O)C=C4[C@H]5C[C@@](C)(C(=O)OC)CC[C@]5(C)CC[C@@]4(C)[C@]3(C)CC[C@H]2C1(C)C (stereo partly drawn) [Compound No. 11, (2S,4aS,6aS,6bR,8aR,12aS,12bR,14bS)-methyl 10-(3-((S)-1-methoxy-1-oxo-3-phenylpropan-2-yl)ureido)-2,4a,6a,6b,9,9,12a-heptamethyl-13-oxo-1,2,3,4,4a,5,6,6a,6b,7,8,8a,9,10,11,12,12a,12b,13,14b-icosahydropicene-2-carboxylate] | tended to amplify memory cells |
| COC(=O)[C@@]1(C)CC[C@]2(C)CC[C@]3(C)C(=CC(=O)[C@@H]4[C@@]5(C)CCC(NC(=O)Nc6ccccc6C(=O)O)C(C)(C)[C@@H]5CC[C@]43C)[C@H]2C1 (stereo partly drawn) [Compound No. 12, 2-(3-((4aR,6aR,6bS,8aS,11S,12aS,14aR,14bS)-11-(methoxycarbonyl)-4,4,6a,6b,8a,11,14b-heptamethyl-14-oxo-1,2,3,4,4a,5,6,6a,6b,7,8,8a,9,10,11,12,12a,14,14a,14b-icosahydropicen-3-yl)ureido)benzoic acid] | tended to amplify memory cells |
| CC1(C)C(N)CC[C@]2(C)[C@H]3C(=O)C=C4[C@H]5C[C@@](C)(C(N)=O)CC[C@]5(C)CC[C@@]4(C)[C@]3(C)CC[C@@H]12 (stereo partly drawn) [Compound No. 19, (2S,4aS,6aS,6bR,8aR,12aS,12bR,14bS)-10-amino-2,4a,6a,6b,9,9,12a-heptamethyl-13-oxo-1,2,3,4,4a,5,6,6a,6b,7,8,8a,9,10,11,12,12a,12b,13,14b-icosahydropicene-2-carboxamide] | tended to amplify memory cells |
| CC1(C)C(N)CC[C@]2(C)[C@H]3C(=O)C=C4[C@H]5C[C@@](C)(C(=O)O)CC[C@]5(C)CC[C@@]4(C)[C@]3(C)CC[C@@H]12.Cl (stereo partly drawn) [Compound No. 20, (2S,4aS,6aS,6bR,8aR,12aS,12bR,14bS)-10-amino-2,4a,6a,6b,9,9,12a-heptamethyl-13-oxo-1,2,3,4,4a,5,6,6a,6b,7,8,8a,9,10,11,12,12a,12b,13,14b-icosahydropicene-2-carboxylic acid hydrochloride] | tended to amplify memory cells |
| CC1(C)C(N)CC[C@]2(C)[C@H]3C(=O)C=C4[C@@H]5C[C@@](C)(C(=O)O)CC[C@]5(C)CC[C@@]4(C)[C@]3(C)CC[C@@H]12.Cl (stereo partly drawn) [Compound No. 21, (2S,4aS,6aS,6bR,8aR,12aS,12bR,14bR)-10-amino-2,4a,6a,6b,9,9,12a-heptamethyl-13-oxo-1,2,3,4,4a,5,6,6a,6b,7,8,8a,9,10,11,12,12a,12b,13,14b-icosahydropicene-2-carboxylic acid hydrochloride] | tended to amplify memory cells |
| CC1(C)C(NC(=O)c2ccccc2C(=O)O)CC[C@]2(C)[C@H]3C(=O)C=C4[C@@H]5C[C@@](C)(C(=O)O)CC[C@]5(C)CC[C@@]4(C)[C@]3(C)CC[C@@H]12 (stereo partly drawn) [Compound No. 27, (2S,4aS,6aS,6bR,8aR,12aS,12bR,14bR)-10-(2-carboxybenzamide)-2,4a,6a,6b,9,9,12a-heptamethyl-13-oxo-1,2,3,4,4a,5,6,6a,6b,7,8,8a,9,10,11,12,12a,12b,13,14b-icosahydropicene-2-carboxylic acid] | tended to amplify memory cells |
| CC1(C)C(=NO)CC[C@]2(C)[C@H]3C(=O)C=C4[C@H]5C[C@@](C)(C(N)=O)CC[C@]5(C)CC[C@@]4(C)[C@]3(C)CC[C@@H]12 [RDHI-038, (2S,4aS,6aS,6bR,8aR,12aS,12bR,14bS)-10-(hydroxyimino)-2,4a,6a,6b,9,9,12a-heptamethyl-13-oxo-1,2,3,4,4a,5,6,6a,6b,7,8,8a,9,10,11,12,12a,12b,13,14b-icosahydropicene-2-carboxamide] | tended to amplify memory cells |
